Assay results from PubChem BioAssay (NCI).
Where “and” joins values, the source holds several entries; their conditions need not be identical. Equal values may be shown once.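 Compound exposure: 48 hours, 5 concentrations, 96-well plates. At the GI50, growth is halved. TGI marks complete inhibition of growth.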

Key:
Assay in all cases: growth of human tumour cells (NCI), 48 h
UACC-257 melanoma = system: UACC-257 melanoma
MALME-3M melanoma = system: MALME-3M melanoma
SNB-19 CNS = system: SNB-19 CNS
KM20L2 colon = system: KM20L2 colon
OVCAR-8 ovarian = system: OVCAR-8 ovarian
DMS 273 small cell lung = system: DMS 273 small cell lung
LOX IMVI melanoma = system: LOX IMVI melanoma
NCI-H23 lung = system: NCI-H23 lung
PC-3 prostate = system: PC-3 prostate
T-47D breast = system: T-47D breast

SMILES	TGI (UACC-257 melanoma)	TGI (MALME-3M melanoma)	TGI (SNB-19 CNS) [µM]	TGI (KM20L2 colon) [µM]	TGI (OVCAR-8 ovarian) [µM]	TGI (DMS 273 small cell lung) [µM]	TGI (LOX IMVI melanoma)	TGI (NCI-H23 lung)	GI50 (UACC-257 melanoma)	GI50 (PC-3 prostate)	TGI (PC-3 prostate) [µM]	GI50 (MALME-3M melanoma)	GI50 (SNB-19 CNS)	GI50 (T-47D breast)	TGI (T-47D breast)	GI50 (OVCAR-8 ovarian)	GI50 (NCI-H23 lung)	GI50 (LOX IMVI melanoma)
COc1ccc(C/C(=N/O)C(=O)NCCc2cc(Br)c(OCCCN(C)C)c(Br)c2)cc1Br	30.6 µM	44.6 µM	32.6	40.6	49.1	7.61	30.1 µM											
CN1C(=O)CCC1(O)C1C=CC=CC1 (stereo unspecified)	> 100 µM	> 100 µM	> 100	> 100	> 100	> 100	> 100 µM	> 100 µM										
O=C1NC(Cc2ccc(O)cc2)C(=O)N2CCCC12 (stereo unspecified)	> 100 µM	> 100 µM	> 100	> 100	> 100	> 100	> 100 µM											
Cn1c2c(c3ccccc31)CCN(CCCCN1CCCCC1)C2=O	> 100 µM		> 100	> 100	> 100	> 100		> 100 µM										
N#Cc1c(-c2ccc(Cl)c(Cl)c2)c(-c2ccc(Cl)c(Cl)c2)nn(CC(=O)O)c1=O	> 100 µM	> 100 µM		56.8	> 100	> 100	> 100 µM											
Cn1cc(C(=O)c2ccccc2)c2ccccc2c1=O	> 100 µM	> 100 µM			> 100	> 100	> 100 µM											
COc1ccc(NC(=O)C(=O)c2c(O)c3ccc(O)cc3oc2=O)c([N+](=O)[O-])c1	> 100 µM	> 100 µM	> 100	> 100		> 100	> 100 µM	> 100 µM										
Cc1nc(-n2nc(-c3ccccc3)cc2-c2ccccc2)sc1C(=O)/C=C/c1ccc(/C=C/C(=O)c2sc(-n3nc(-c4ccccc4)cc3-c3ccccc3)nc2C)cc1	45.6 µM	40.2 µM	42	36.4	> 100	44.9	40.6 µM	35.3 µM										
O=C(NCCCCCCCCCCCCNC(=O)c1cccc2ccccc12)c1cccc2ccccc12	> 100 µM	> 100 µM	> 73.6	> 100	> 100	> 100	> 100 µM	> 100 µM										
COC(=O)CC(NC(=O)OCc1ccccc1)C(C(C)=O)C(=O)OCc1ccccc1 (stereo unspecified)	> 31.6 µM			> 31.6	> 31.6	> 31.6	> 100 µM	> 31.6 µM										
Cc1cc(NCCCCCCCCNc2cc(C)nc3cc(N)ccc23)c2ccc(N)cc2n1	35.5 µM		45.4	48.8	52.1	28.9	40.1 µM	52.8 µM										
N#CCCN(c1ccc(C=Nc2ccccc2)cc1)S(=O)(=O)c1ccccc1	> 100 µM	> 100 µM	> 100		> 100	> 100		> 100 µM										
Nc1ncnc2c1ncn2[C@]1(CO)C=C(CO)C(O)C1O (stereo partly specified)	> 100 µM	> 100 µM	> 100	> 100		> 100	> 100 µM	> 100 µM										
O=Nc1ccc(O)c(=O)cc1	7.86 µM	4.14 µM	27.3		11		7.67 µM	12 µM	2.26 µM	3.77 µM	16.2	1.21 µM	13.5 µM	1.76 µM	4.28 µM	2.82 µM	3.04 µM	2.16 µM
O=C(Cc1ccc(/C=C/C(=O)c2ncc[nH]2)cc1)Nc1ccc(F)cc1	30.6 µM	22.1 µM	14.9		> 33.3		4.72 µM	9.54 µM	8.67 µM	2.8 µM	11.9	7.86 µM	1.58 µM	3.33 µM	24.6 µM	5.08 µM	1.91 µM	1.07 µM
COC(=O)C(Cc1cc(OC)c(OC)c(OC)c1)C(=O)OC	> 320 µM	> 320 µM		> 320	> 320	> 320	> 320 µM	> 320 µM										
Cc1ccc(S(=O)(=O)OCCn2cnc3nc(NC(=O)c4ccccc4)[nH]c(=O)c32)cc1	> 100 µM	> 100 µM	> 100	> 100	> 100	> 100	> 100 µM											
O=S(=O)(NCCCNc1nccc(-c2c(-c3ccc(O)cc3)nc3sccn23)n1)c1ccc(F)cc1	2.36 µM	3.56 µM	> 100		13.3		5.44 µM	7.7 µM	0.134 µM	3.11 µM	29	0.0391 µM	4.27 µM	1.39 µM	3.55 µM	1.57 µM	2.24 µM	0.567 µM
CN(c1ncccc1CNc1nc(Nc2ccc3c(c2)CC(=O)N3)ncc1C(F)(F)F)S(C)(=O)=O	5.54 µM and 8.76 µM	10.2 µM and > 10 µM	> 100		> 64.6		17.4 µM and 9.4 µM	4.88 µM and 6.35 µM	1.6 µM and 2.24 µM	2.83 µM and 3 µM	> 35.9	2.98 µM and 2.89 µM	2.75 µM and 2.89 µM	3.22 µM and 2.72 µM	> 33 µM and 9.35 µM	2.41 µM and 3.38 µM	1.79 µM and 2.16 µM	1.31 µM and 1.68 µM
